# According to US10383831B2, “2,4,6-trialkoxystryl aryl sulfones, sulfonamides and carboxamides, and methods of preparation and use” (Temple University—Of The Commonwealth System Of Higher …, priority 2015, dated 2019):
# How the values were obtained:
# Type in all cases: cell-based
# [1] = tested on: tumor cell lines; test: Cytotoxicity assay, comparison across the cell lines listed in Table 18; details: across a wide range of tumor cell lines
# Protocol: (§1) Cells of the cell lines listed in Table 18 (1×10^5) were plated into 6-well dishes. Twenty-four hours later, the compound of Example 1, i.e., (Z)-ethyl 3-((2-methoxy-5-(((E)-2,4,6-trimethoxystyrylsulfonyl)methyl) phenyl)amino)acrylate, or the compound of Comparative Example 1, i.e., sodium (E)-2-(5-((2,4,6-trimethoxystyrylsulfonyl)methyl)-2-methoxyphenylamino) acetate (rigosertib) was added at different concentrations over a 4 log dilution (0.001 to 10 μM). The total number of viable cells was determined after 96 hours of continuous treatment by staining with trypan blue and counting the number of non-staining cells (viable) remaining in each well using a hemacytometer. The percentage of viable cells remaining was calculated as follows: # viable cells (compound treated)/# viable cells (DMSO treated)*100. The GI50 (the concentration of drug resulting in 50% net loss of growth inhibition) was determined.
# [2] = tested on: 5367; test: Cytotoxicity assay (viable cell count, trypan blue), 5367; details: 5367, Bladder; 96 hours continuous treatment
# Protocol: as §1
# [3] = tested on: WM1617; test: Cytotoxicity assay (viable cell count, trypan blue), WM1617; details: WM1617, Melanoma; 96 hours continuous treatment
# Protocol: as §1
# [4] = tested on: T-24; test: Cytotoxicity assay (viable cell count, trypan blue), T-24; details: T-24, Bladder; 96 hours continuous treatment
# Protocol: as §1
# [5] = tested on: Z1385; test: Cytotoxicity assay (viable cell count, trypan blue), Z1385; details: Z1385, Mantle Cell Lymphoma; 96 hours continuous treatment
# Protocol: as §1
# [6] = tested on: RS4; 11; test: Cytotoxicity assay (viable cell count, trypan blue), RS4; 11; details: 11, ALL-B-Cell Precursor, 96 hours continuous treatment
# Protocol: as §1
# [7] = tested on: A549; test: Cytotoxicity assay (viable cell count, trypan blue), A549; details: A549, Non-Small Cell Lung Carcinoma; 96 hours continuous treatment
# Protocol: as §1
# [8] = tested on: HCT-116; test: Cytotoxicity assay (viable cell count, trypan blue), HCT-116; details: HCT-116, Colo-Rectal; 96 hours continuous treatment
# Protocol: as §1
# [9] = tested on: GRANTA-519; test: Cytotoxicity assay (viable cell count, trypan blue), GRANTA-519; details: GRANTA-519, Mantle Cell Lymphoma; 96 hours continuous treatment
# Protocol: as §1
# [10] = tested on: K562; test: Cytotoxicity assay (viable cell count, trypan blue), K562; details: K562, Chronic Myelogenous Leukemia; 96 hours continuous treatment
# Protocol: as §1
# [11] = tested on: DU145; test: Cytotoxicity assay (viable cell count, trypan blue), DU145; details: DU145, Prostate; 96 hours continuous treatment
# Protocol: as §1
# [12] = tested on: MOLT-4; test: Cytotoxicity assay (viable cell count, trypan blue), MOLT-4; details: MOLT-4, T-Cell Lymphoma; 96 hours continuous treatment
# Protocol: as §1
# [13] = tested on: HCT-15; test: Cytotoxicity assay (viable cell count, trypan blue), HCT-15; details: HCT-15, Colo-Rectal; 96 hours continuous treatment
# Protocol: as §1
# [14] = tested on: UM-UC-3; test: Cytotoxicity assay (viable cell count, trypan blue), UM-UC-3; details: UM-UC-3, Bladder; 96 hours continuous treatment
# Protocol: as §1
# [15] = tested on: Caov-3; test: Cytotoxicity assay (viable cell count, trypan blue), Caov-3; details: Caov-3, Ovarian; 96 hours continuous treatment
# Protocol: as §1
# [16] = tested on: MDA-MB-231; test: Cytotoxicity assay (viable cell count, trypan blue), MDA-MB-231; details: MDA-MB-231, Breast; 96 hours continuous treatment
# Protocol: as §1
# [17] = tested on: MIA-PaCa-2; test: Cytotoxicity assay (viable cell count, trypan blue), MIA-PaCa-2; details: MIA-PaCa-2, Pancreatic; 96 hours continuous treatment
# Protocol: as §1
# [18] = tested on: CEM; test: Cytotoxicity assay (viable cell count, trypan blue), CEM; details: T-Cell Lymphoma, 96 hours continuous treatment
# Protocol: as §1
# [19] = tested on: 2008; test: Cytotoxicity assay (viable cell count, trypan blue), 2008; details: 2008, Ovarian; 96 hours continuous treatment
# Protocol: as §1
# [20] = tested on: H1299; test: Cytotoxicity assay (viable cell count, trypan blue), H1299; details: H1299, Non-Small Cell Lung Carcinoma; 96 hours continuous treatment
# Protocol: as §1
# [21] = tested on: HT-29; test: Cytotoxicity assay (viable cell count, trypan blue), HT-29; details: HT-29, Colo-Rectal; 96 hours continuous treatment
# Protocol: as §1
# [22] = tested on: DAUDI; test: Cytotoxicity assay (viable cell count, trypan blue), DAUDI; details: B-Cell Lymphoma, 96 hours continuous treatment
# Protocol: as §1
# [23] = tested on: PC-3; test: Cytotoxicity assay (viable cell count, trypan blue), PC-3; details: PC-3, Prostate; 96 hours continuous treatment
# Protocol: as §1
# [24] = tested on: N417; test: Cytotoxicity assay (viable cell count, trypan blue), N417; details: N417, Small Cell Lung Carcinoma; 96 hours continuous treatment
# Protocol: as §1
# [25] = tested on: K562 (chronic myelogenous leukaemia); test: Cytotoxicity assay, K562 tumor cells; details: Homo sapiens, 96 hours treatment
# Protocol: (§2) The effect of the compounds of the invention on tumor cells was determined by the assay described by Latham et al., Oncogene 12:827-837 (1996). Tumor cells K562 (chronic myelogenous leukaemia) or DU145 (prostate cancer) were plated in 12-well dishes at a cell density of 2.5×10^4 cells well. The plated cells were treated 24 hours later with a compound of the invention dissolved in DMSO at multiple concentrations ranging from 0.001 to 10 μM. The plates were examined 96 hours later under an inverted microscope, Olympus CK-2 using a 10× objective, and compound activity was noted by physical observation. When necessary, the total number of viable cells was determined by trypsinizing the wells and counting the number of viable cells, as determined by trypan blue exclusion, using a hemacytometer.
# [26] = tested on: DU145 (prostate cancer); test: Cytotoxicity assay, DU145 tumor cells; details: Homo sapiens, DU-145, 96 hours treatment
# Protocol: as §2
smiles,measurement,setting,value
"CCOC(=O)/C=C\Nc1cc(CS(=O)(=O)/C=C/c2c(OC)cc(OC)cc2OC)ccc1OC [(Z)-ethyl 3-((2-methoxy-5-(((E)-2,4,6-trimethoxystyrylsulfonyl)methyl)phenyl)amino)acrylate]",fold more cytotoxic than Rigosertib,[1],10-100 fold
"COc1cc(OC)c(/C=C/S(=O)(=O)Cc2ccc(OC)c(NCC(=O)O)c2)c(OC)c1 [Comparative Example 1, Sodium (E)-2-(5-((2,4,6-trimethoxystyrylsulfonyl)methyl)-2-methoxyphenylamino) acetate, reference compound]",GI50,[2],100 nM
same,GI50,[3],300 nM
same,GI50,[4],70 nM
same,GI50,[5],40 nM
same,GI50,[6],75 nM
same,GI50,[7],75 nM
same,GI50,[8],100 nM
same,GI50,[9],40 nM
same,GI50,[10],120 nM
same,GI50,[11],150 nM
same,GI50,[12],40 nM
same,GI50,[13],200 nM
same,GI50,[14],50 nM
same,GI50,[15],150 nM
same,GI50,[16],90 nM
same,GI50,[17],150 nM
same,GI50,[18],40 nM
same,GI50,[19],100 nM
same,GI50,[20],200 nM
same,GI50,[21],250 nM
same,GI50,[22],75 nM
same,GI50,[23],75 nM
same,GI50,[24],100 nM
"COc1cc(OC)c(/C=C/S(=O)(=O)Cc2ccc(OC)c(N/C=C\C(C)=O)c2)c(OC)c1 [Ex. 2, (Z)-4-((2-Methoxy-5-(((E)-2,4,6-trimethoxystyrylsulfonyl)methyl)phenyl)amino)but-3-en-2-one]",IC50,[25],0.1 µM
same,IC50,[26],0.1 µM
"COC(=O)/C=C\Nc1cc(CS(=O)(=O)/C=C/c2c(OC)cc(OC)cc2OC)ccc1OC [Ex. 3, (Z)-methyl 3-((2-methoxy-5-(((E)-2,4,6-trimethoxystyrylsulfonyl)methyl)phenyl)amino) acrylate]",IC50,[25],0.004 µM
same,IC50,[26],0.004 µM
"COc1ccc(C(=O)/C=C\Nc2cc(CS(=O)(=O)/C=C/c3c(OC)cc(OC)cc3OC)ccc2OC)cc1 [Ex. 4, (Z)-1-(4-methoxyphenyl)-3-((2-methoxy-5-(((E)-2,4,6-trimethoxystyrylsulfonyl)methyl)phenyl)amino)prop-2-en-1-one]",IC50,[25],0.05 µM
same,IC50,[26],0.05 µM
"COc1cc(OC)c(/C=C/S(=O)(=O)Cc2ccc(OC)c(N/C=C\C(=O)c3cc(OC)c(OC)c(OC)c3)c2)c(OC)c1 [Ex. 5, (Z)-1-(3,4,5-trimethoxyphenyl)-3-((2-methoxy-5-(((E)-2,4,6-trimethoxystyrylsulfonyl)methyl)phenyl)amino) prop-2-en-1-one]",IC50,[26],0.009 µM
"COc1cc(OC)c(/C=C/S(=O)(=O)Cc2ccc(OC)c(N/C=C\C(=O)c3cc(OC)c(OC)c(OC)c3Cl)c2)c(OC)c1 [Ex. 7, (Z)-1-(2-chloro-3,4,5-trimethoxyphenyl)-3-((2-methoxy-5-(((E)-2,4,6-trimethoxystyrylsulfonyl)methyl)phenyl)amino)prop-2-en-1-one]",IC50,[25],0.05 µM
same,IC50,[26],0.05 µM
"COc1cc(OC)c(/C=C/S(=O)(=O)Cc2ccc(OC)c(N/C=C\C(=O)c3cc(OC)c(OC)c(OC)c3Br)c2)c(OC)c1 [Ex. 8, (Z)-1-(2-bromo-3,4,5-trimethoxyphenyl)-3-((2-methoxy-5-(((E)-2,4,6-trimethoxystyrylsulfonyl)methyl)phenyl)amino)prop-2-en-1-one]",IC50,[25],0.075 µM
same,IC50,[26],0.075 µM
"C#CCN(CC#C)c1cc(CS(=O)(=O)/C=C/c2c(OC)cc(OC)cc2OC)ccc1OC [Ex. 161, (E)-2-methoxy-N,N-di(prop-2-yn-1-yl)-5-(((2,4,6-trimethoxystyryl)sulfonyl)-methyl)aniline]",IC50,[25],2.5 µM
same,IC50,[26],2.5 µM
"COc1cc(OC)c(/C=C/S(=O)(=O)Cc2ccc(OC)c(NC(=O)/C=C\C(=O)O)c2)c(OC)c1 [Ex. 171, (Z)-4-((2-methoxy-5-(((E)-2,4,6-trimethoxystyrylsulfonyl)methyl)phenyl)amino)-4-oxobut-2-enoic acid]",IC50,[25],2 µM
same,IC50,[26],2 µM
"COC(=O)/C=C\C(=O)Nc1cc(CS(=O)(=O)/C=C/c2c(OC)cc(OC)cc2OC)ccc1OC [Ex. 176, (Z)-methyl 4-((2-methoxy-5-(((E)-2,4,6-trimethoxystyrylsulfonyl)methyl)phenyl)amino)-4-oxobut-2-enoate]",IC50,[25],0.25 µM
same,IC50,[26],2 µM
"CCOC(=O)/C=C/CNc1cc(CS(=O)(=O)/C=C/c2c(OC)cc(OC)cc2OC)ccc1OC [Ex. 181, (E)-Ethyl 4-((2-methoxy-5-(((E)-2,4,6-trimethoxystyrylsulfonyl)methyl)phenyl)amino)but-2-enoate]",IC50,[25],0.25 µM
same,IC50,[26],0.25 µM
"COc1cc(OC)c(/C=C/S(=O)(=O)Cc2ccc(OC)c(NC(=O)/C=C/C(=O)O)c2)c(OC)c1 [Ex. 186, (E)-4-((2-methoxy-5-(((E)-2,4,6-trimethoxystyrylsulfonyl)methyl)phenyl)amino)-4-oxobut-2-enoic acid]",IC50,[25],2 µM
same,IC50,[26],2 µM
"CCOC(=O)C(=CNc1cc(CS(=O)(=O)/C=C/c2c(OC)cc(OC)cc2OC)ccc1OC)C(=O)OCC [Ex. 191, (E)-diethyl-2-(((2-methoxy-5-(((2,4,6-trimethoxystyryl)sulfonyl)methyl)phenyl)-amino)methylene)malonate]",IC50,[25],2 µM
same,IC50,[26],2 µM
"C=CC(=O)Nc1cc(CS(=O)(=O)/C=C/c2c(OC)cc(OC)cc2OC)ccc1OC [Ex. 201, (E)-N-(2-methoxy-5-(((2,4,6-trimethoxystyryl)sulfonyl)methyl)phenyl)acrylamide]",IC50,[25],0.75 µM
same,IC50,[26],0.75 µM
